Experiment: Excipient compatibility: accelerated stability of Compound A tablets (degradation by chromatography)
Assay type: physicochemical
Conditions: stored at 50/75 for 45 days
Method: Excipient compatibility experiments were designed as linear D-optimal designs with qualitative factors of two or more levels. The formulations used in these experiments can be directly compressed into tablets. For dry processing, three factors were evaluated, namely binary filler combination, choice of disintegrant and choice of lubricant. In the experimental design shown below (see Table 3) the effect of an HPMC-based film coat as well as the addition of colloidal silicon dioxide was evaluated using repeat corners.
Pure drug substance was included as a reference in all conditions.
This is shown in FIG. 2, where tablets stored at 50/75 for 45 days are compared with neat drug substance stored in identical conditions as well as a freshly prepared standard solution from the same drug substance batch. The chromatograms are stacked in order of degradation (and slightly shifted for clarity).
However, the general trends from the other conditions could still be seen. […] Based on this, 70/XX data was omitted from the shelf life prediction model.
Five different peaks were monitored at five different conditions. However, as discussed above, the 70/XX condition was excluded based on a probable conversion to Form B. Overall, Compound A in tablets containing glyceryl behenate appears to degrade to a slightly lesser degree than magnesium stearate.

Compound: Cn1c(=O)oc2ccc(-c3ccc(C[C@@H](C#N)NC(=O)[C@@H]4CNCCCO4)cc3)cc21 [Compound A, (2S)-N-{(1S)-1-cyano-2-[4-(3-methyl-2-oxo-2,3-dihydro-1,3-benzoxazol-5-yl)phenyl]ethyl}-1,4-oxazepane-2-carboxamide]
- Degradation (overlaid chromatograms, FIG. 2): almost no difference

Source: patent US12201638B2, “Pharmaceutical compositions comprising (2S)-n-{(1S)-1-cyano-2-[4-(3-methyl-2-oxo-2,3-dihydro-1,3-benzoxazol-5-yl)phenyl]ethyl}-1,4-oxazepane-2-carboxamide” (ASTRAZENECA AB, priority 2018, dated 2025)
